Measurements as given in patent US20060051526A1, “Process for producing cellulose acylate film” (Fuji Photo Film Co., Ltd., priority 2002, published 2006).

Legend:
Format in all cases: physicochemical
[1] = Solubility test of the additive alone in dichloromethane/methanol mixed solvent (visual, after 4 days)
[2] = as above; conditions: for Solubility S0 (solids weight concentration at the dissolution limit): CH2Cl2/CH3OH 87/13
Procedure: The solubility of the functional additives was measured as follows.
1. Solutions were prepared by adjusting each concentration in a 50 cc screw cap bottle.
2. Allowed to stand at room temperature for 4 days. Here, the results of the solubility changed between 1 day and 4 days in some cases, and evaluation of the solubility was carried out after 4 days as a time when equilibrium was reached.
3. Samples were prepared in the same manner at other temperatures (20° C., 35° C.), and the solubility after allowing to stand for 4 days was visually inspected.
Predetermined amounts of Example Compounds I-(51) and I-(2) were weighed into a mixed solvent of dichloromethane and methanol, and the solubility was measured by changing the mixing ratio of the organic solvents.
The solubility (solids weight concentration at the dissolution limit was calculated as (C1+C2)/2 when the concentration limit at which it could be dissolved was C1 and the concentration limit at which it could not be dissolved was C2) of the retardation control agent in a mixed solvent having an initial methylene chloride/methanol composition ratio of 87/13 was defined as S0, and the solubility of the retardation control agent when the solvent composition changed, during drying, to 74/26 where the methanol wt % was the maximum was defined as S1. The temperature at which the solubility was measured is denoted by the figure in brackets.

[3] = Measurement of micro heat of solution (multi-purpose calorimeter MPC-110); conditions: for Degree of stabilization: Table 15; for Heat of solution ΔH0: solvent alone, 26.0° C.
Procedure: (2 Measurement of Micro Heat of Solution)
The heat of solution (dissolution enthalpy ΔH) of functional additives was measured as follows, using a multi-purpose calorimeter (MPC-110) manufactured by Tokyo Rikou as a micro heat of solution measuring instrument.
1. Solvent liquids and concentrated solutions were prepared beforehand in 1 L bottles.
2. Preparation of ampoule tubes
(1) Additives (powdered solid) were ground by a mortar and the granules were made uniform.
(2) A required amount (252 mg) of the additive to be measured was weighed into an ampoule tube for measurement of the micro heat of solution.
(3) The neck of the ampoule tube was heated sufficiently by a gas burner so as to seal the ampoule tube.
3. 50 g of the prepared solvent liquid or the concentrated solution was weighed into a measuring vessel. This amount was selected as an amount sufficient to immerse the ampoule tube in the solvent liquid when set in the measuring instrument.
4. The ampoule tube was set in the measuring instrument, which was equipped with an ampoule sealing mechanism, the measuring vessel was hermetically sealed with the ampoule sealing mechanism after confirming that the ampoule tube was immersed in the solvent liquid, it was placed in a constant temperature bath (26.0° C.), and stirring was started.
5. After confirming that the measuring instrument placed in the constant temperature bath had reached equilibrium temperature (about 8 to 12 hours) the ampoule tube was broken so as to mix the additive with the solvent liquid or the concentrated solution.
6. The total amount of heat generated was recorded.
7. The Joule's heat generated was measured by applying a known voltage to the measurement system for an appropriate time, and the recorded chart area for each measurement cell was calibrated using a known amount of heat.
8. The heat of solution of the sample was calculated from the Joule's heat and the measured sample area.
Shown in Table 11 are the solvent composition (wt %) and the solids composition (parts by weight) of the mother liquor when measuring the heat of solution, the type of retardation control agent sealed in the ampoule tube (Example Compounds I-(51) or I-(2)), and the results of measurement of the heat of solution.
The identification symbols of elements constituting the system are as follows: a denotes triacetylcellulose/plasticizer, b denotes triacetylcellulose, and c denotes plasticizer. For example, 2-87a denotes that the retardation control agent is the Example Compound I-(2), the solvent composition (wt %) is dichloromethane/methanol=87/13, and the solids constituting the system are triacetylcellulose and the plasticizer.
The heat of solution ΔH0 denotes the heat of solution (heat absorption) generated when there is no solid in the system (before breaking the ampoule tube) and the retardation control agent is dissolved in a solvent alone. […] The solids concentration of the system when saturation starts is defined as the saturation heat of solution solids concentration (wt %).
In all cases, when the solids concentration of the system is increased, the heat of solution either remains unchanged from that at a solids concentration of 0 wt % (the saturation heat of solution solids concentration is 0) or decreases and becomes saturated. […] This degree of stabilization is expressed as ΔH0−ΔHs, which is the decrease in the heat of solution.

[4] = initial 87/13 vs 74/26, at any of 25° C., 20° C., 35° C.
[5] = 87/13, solids a: triacetylcellulose/plasticizer
[6] = 87/13, solids b: triacetylcellulose only
[7] = 87/13, solids c: plasticizer only

In the case of `Cc1cccc(Nc2nc(Nc3cccc(C)c3)nc(Nc3cccc(C)c3)n2)c1` [Example Compound I-(51)], the “Difference S0 − S1” value ([1]; 20° C., 87/13 vs 74/26) is reported as 15 wt %, the “Difference S0 − S1” value ([1]; 20° C., 92/8 vs 91/9) is reported as 0 wt % and the “Ratio S1/S0” value ([1]; 20° C., 92/8 vs 91/9) is reported as 1.000. For the same compound, the “Solubility S1 (solids weight concentration at the dissolution limit)” value ([1]; 20° C., CH2Cl2/CH3OH 74/26) was 12.5 wt %, the “Solubility S1 (solids weight concentration at the dissolution limit)” value ([1]; 20° C., CH2Cl2/CH3OH 91/9) was 27.5 wt % and the “Solubility S0 (solids weight concentration at the dissolution limit)” value ([1]; 20° C., CH2Cl2/CH3OH 92/8) was 27.5 wt %. The “Difference S0 − S1” value ([1]; 25° C., 87/13 vs 74/26) was 20 wt %, the “Difference S0 − S1” value ([1]; 25° C., 92/8 vs 91/9) was 0 wt % and the “Ratio S1/S0” value ([1]; 25° C., 92/8 vs 91/9) was 1.000. The “Solubility S1 (solids weight concentration at the dissolution limit)” value ([1]; 25° C., CH2Cl2/CH3OH 74/26) was 17.5 wt %, the “Solubility S0 (solids weight concentration at the dissolution limit)” value ([1]; 25° C., CH2Cl2/CH3OH 87/13) was 37.5 wt % and the “Solubility S1 (solids weight concentration at the dissolution limit)” value ([1]; 25° C., CH2Cl2/CH3OH 91/9) was 37.5 wt %. The “Solubility S0 (solids weight concentration at the dissolution limit)” value ([1]; 25° C., CH2Cl2/CH3OH 92/8) was 37.5 wt %, the “Difference S0 − S1” value ([1]; 35° C., 92/8 vs 91/9) was 0 wt % and the “Ratio S1/S0” value ([1]; 35° C., 92/8 vs 91/9) was 1.000. For the same compound, the “Solubility S1 (solids weight concentration at the dissolution limit)” value ([1]; 35° C., CH2Cl2/CH3OH 91/9) was 27.5 wt %, the “Solubility S0 (solids weight concentration at the dissolution limit)” value ([1]; 35° C., CH2Cl2/CH3OH 92/8) was 27.5 wt % and the “Difference in solubility S0−S1” value [1, 4] was no less than 15 wt %. The “Ratio S1/S0 of the solubility” value [1, 4] was “less than 0.5”, the “Ratio S1/S0” value ([2]; 20° C., 87/13 vs 74/26) was 0.455 and the “Solubility S0 (solids weight concentration at the dissolution limit)” value ([2]; 20° C.) was 27.5 wt %. The “Ratio S1/S0” value ([2]; 25° C., 87/13 vs 74/26) was 0.467, the “Difference S0 − S1” value ([2]; 35° C., 87/13 vs 74/26) was 15 wt % and the “Ratio S1/S0” value ([2]; 35° C., 87/13 vs 74/26) was 0.455. For the same compound, the “Solubility S1 (solids weight concentration at the dissolution limit)” value ([2]; 35° C., CH2Cl2/CH3OH 74/26) was 12.5 wt %, the “Solubility S0 (solids weight concentration at the dissolution limit)” value ([2]; 35° C.) was 27.5 wt % and the “Degree of stabilization (ΔH0 − ΔHs)” value ([3]; 50/50, solids a) was 0 kcal/mol. The “Saturation heat of solution solids concentration” value (“Saturation heat” below) ([3]; 50/50, solids a) was 0 wt %, the “Heat of solution ΔHs” value ([3]; 50/50, solids a: triacetylcellulose/plasticizer) was 4.25 kcal/mol and the “Degree of stabilization (ΔH0 − ΔHs)” value ([3]; 74/26, solids a) was 0 kcal/mol. The “Saturation heat” value ([3]; 74/26, solids a) was 0 wt %, the “Heat of solution ΔHs” value ([3]; 74/26, solids a: triacetylcellulose/plasticizer) was 4.56 kcal/mol and the “Degree of stabilization (ΔH0 − ΔHs)” value [3, 5] was 0.5 kcal/mol. For the same compound, the “Saturation heat” value [3, 5] was 5 wt %, the “Heat of solution ΔHs” value ([3]; 87/13, solids a: triacetylcellulose/plasticizer (TPP/BDP)) was 4.35 kcal/mol and the “Degree of stabilization (ΔH0 − ΔHs)” value [3, 6] was 0.6 kcal/mol. The “Heat of solution ΔHs” value [3, 6] was 4.25 kcal/mol, the “Saturation heat” value [3, 6] was 5 wt % and the “Degree of stabilization (ΔH0 − ΔHs)” value [3, 7] was 0 kcal/mol. The “Heat of solution ΔHs” value [3, 7] was 4.85 kcal/mol, the “Saturation heat” value [3, 7] was 0 wt % and the “Degree of stabilization (ΔH0 − ΔHs)” value ([3]; 92/8, solids a) was 0.8 kcal/mol. The “Saturation heat” value ([3]; 92/8, solids a) was 7 wt %, the “Heat of solution ΔHs” value ([3]; 92/8, solids a: triacetylcellulose/plasticizer) was 4.23 kcal/mol and the “Degree of stabilization (ΔH0 − ΔHs)” value ([3]; 100/0, solids a) was 1.48 kcal/mol. For the same compound, the “Saturation heat” value ([3]; 100/0, solids a) was 10 wt %, the “Heat of solution ΔHs” value ([3]; 100/0, solids a: triacetylcellulose/plasticizer) was 3.79 kcal/mol and the Degree of stabilization ([3]; dope Table 12, solvent composition 87/13) was 0.50 kcal/mol. The Degree of stabilization ([3]; dope Table 13, solvent composition 92/8) was 0.80 kcal/mol, the Degree of stabilization ([3]; dope Table 14, solvent composition 74/26) was 0 kcal/mol and the “Stabilization by solids in the system (in words)” value ([3]; case c: only the plasticizer present in the system) was “not stabilized”. For the same compound, the “Heat of solution ΔH0” value ([3]; dichloromethane/methanol 50/50 wt %) was 4.25 kcal/mol, the “Heat of solution ΔH0” value ([3]; dichloromethane/methanol 74/26 wt %) was 4.56 kcal/mol and the “Heat of solution ΔH0” value ([3]; dichloromethane/methanol 87/13 wt %) was 4.85 kcal/mol. For the same compound, the “Heat of solution ΔH0” value ([3]; dichloromethane/methanol 92/8 wt %) was 5.03 kcal/mol and the “Heat of solution ΔH0” value ([3]; dichloromethane/methanol 100/0 wt %) was 5.27 kcal/mol.
